Measurements as given in ChEMBL document CHEMBL3507680, “University of Dundee, Gates Library screen for HepG2 cell viability”.

Assay: Human HepG2 cell viability assay in 384 well format
Format: toxicity, cell-based
Set-up: dose 125 nL, time 70.5 hour; cytotoxicity at 70.5 h: concentration not given beside the values
Details: HepG2 cells, read-out: Inhibition

Row | SMILES | cytotoxicity at 70.5 h [%]
1 | Cn1cnnc1C1CCCN(C(=O)NCCOc2ccccc2)C1 (centres undefined) | 40.2
2 | COc1ccnc(CNc2nc(C)nc(C)c2C)c1 | 3
3 | CCC(Nc1nc(C)nc2onc(C)c12)c1nc(C)c(C)s1 (centres undefined) | 24.7
4 | O=C1COc2ccc(C(=O)NS(=O)(=O)c3ccc(F)cc3F)cc2N1 | -0.102
5 | Cn1cc(C(=O)N[C@@H]2CN(Cc3cccnc3)[C@@H]3CCCO[C@@H]32)cn1 | -4.29
6 | O=C(Cn1cnnn1)NC(c1ccccc1)c1ccc2c(c1)CCCO2 (centres undefined) | 24.4
7 | CN(C(=O)Nc1ccncc1)C1CCN(c2ccc(Cl)cc2)CC1 | 1.01
8 | CC(C)OCCN1CCC(Nc2ccc(C#N)cc2F)CC1 | -8.23
9 | CSc1cc2c(cc1NC(=O)NCc1ccncc1)OCCO2 | 2.15
10 | CC(Cn1cccn1)NC(=O)NCCc1ccc(Cl)s1 (centres undefined) | -5.79
11 | c1cc(NC2CC3(CCN(Cc4cscn4)C3)C2)ncn1 (centres undefined) | -7.63
12 | Cn1cc(CN2CCc3c(cnc(-c4ccccc4)c3C(=O)O)C2)cn1 | -5.39
13 | COc1cc(CN(C)C(=O)Nc2cc(C)on2)ccc1SC | -1.35
14 | Cc1cnn(CCC(=O)N2CCCC(c3cc(C)[nH]n3)C2)c1 (centres undefined) | 49
15 | Cc1cnn(CC2CCCCN2CCC(=O)Nc2cc(C)on2)c1 (centres undefined) | 4.06
16 | O=C(NCc1ccc(CO)cc1)C1CCOc2ccccc2C1 (centres undefined) | 4.54
17 | Cc1ccc(CN2Cc3nnn(C)c3C(COCCN(C)C)C2)s1 (centres undefined) | -4.13
18 | OCCCN1CCCC1c1ccc(Br)cc1 (centres undefined) | -9.27
19 | COc1ccc(C(C(=O)O)N2CCN(C3CCCC3)CC2)cc1OC (centres undefined) | 12.5
20 | Cc1ccc(CN(Cc2ccccn2)C(=O)C2CCCCCN2C)s1 (centres undefined) | 27.3
21 | CCNC(=O)N1CCC(n2ccc(C(F)(F)F)n2)CC1 | 38.9
22 | O=C(NCCN1CCNC1=O)c1cnc(-c2cccnc2)nc1 | -3.28
23 | CCN1CC2(CCC1=O)CCN(CCc1nccn1C)CC2 | -6.75

Row | SMILES | cytotoxicity at 70.5 h [%]
24 | Cc1noc(C)c1CN1Cc2cnn(C)c2C(COCC2CC2)C1 (centres undefined) | -10.8
25 | CCc1nc(CC(=O)NCC2(C(N)=O)CCOCC2)cs1 | -6.76
26 | Cc1nc(CCNC(Cc2ccncc2)C(F)(F)F)cs1 (centres undefined) | -3.19
27 | CC(C)(CNC(=O)Nc1cccc(-c2cccs2)c1)C(N)=O | 0.351
28 | CS(=O)(=O)c1ccc(NC(=O)N2CCc3sccc3C2)cn1 | 46.4
29 | Cc1nc(CN2CCOC3(CCCC3)C2)no1 | -5.91
30 | CC(=O)N1CC[C@H]2CC(=O)N(Cc3ccc4c(c3)OCO4)CC[C@H]2C1 | -3.96
31 | O=C(CN(Cc1cccs1)C1CCS(=O)(=O)C1)NCCc1cccs1 (centres undefined) | -2.26
32 | CSc1ccc(C(=O)C2CCCN(C(=O)Cn3cnnn3)C2)cc1 (centres undefined) | -6.73
33 | Cc1cc(NC(=O)CN2CCn3c(nnc3C3CC3)C2)on1 | -2.62
34 | CCC(C)NC(=O)CCc1ccc(OCC(F)(F)F)c(OC)c1 (centres undefined) | -14.7
35 | Cn1c(CO)cnc1SC(C(N)=O)c1ccccc1 (centres undefined) | -15.2
36 | CN1CCOCC12CCN(C(=O)C1CCC1)CC2 | 1.58
37 | CCCc1n[nH]c(C2CN(C(=O)Cc3ccc(C)nc3)CCO2)n1 (centres undefined) | -1.25
38 | C=C(C)COc1cccc(C(=O)N2CCC3(CCOCC3)CC2)c1 | 3.55
39 | COC(=O)CC(NC(=O)CCCn1cccn1)c1ccc(Cl)cc1 (centres undefined) | -14.1
40 | Cc1cc(C(=O)O)c2c(Br)cccc2n1 | -13.5
41 | FC(F)(F)c1ccccc1CCC1CCCN(Cc2cscn2)C1 (centres undefined) | 44.3
42 | CCn1ccnc1CN1CCN(CC(O)c2cccc(F)c2)CC1 (centres undefined) | -5.97
43 | Cn1ccnc1CN1CCCC1Cn1cccn1 (centres undefined) | -1.33
44 | O=c1[nH]c(NCCO)nc2c1C1(CCCCC1)Cc1ccccc1-2 | -1.9
45 | CNC(=O)c1cc2c(nc1NCC1CC1)CCN(S(=O)(=O)C1CC1)CC2 | 2.84
46 | CCn1nc(C(C)C)cc1C(=O)N1CCOc2ccc(OC)cc21 | -5.2

Row | SMILES | cytotoxicity at 70.5 h [%]
47 | Cc1nn(C)c2ncc(NC(=O)N3CCNC(=O)C3)cc12 | -6.74
48 | CC(C)CN1C(=O)C2(CCCC2)NC1c1cn(C)c(=O)n(C)c1=O (centres undefined) | 0.777
49 | O=c1cc(CN2CC[C@H]3CC[C@@H](C2)N3)c2cccc3c2n1CCC3 | -14.4
50 | CNc1c(NCc2ccco2)c(=O)c1=O | -12.4
51 | CCOC(=O)C1CCN(c2cc(C(=O)N3CCCCC3)nc(C)n2)CC1 | -8.82
52 | Cn1nccc1C(=O)N1CCC(c2nnsc2S(C)(=O)=O)CC1 | -5.74
53 | O=C(C[S+]([O-])C1CCCC1)NCCOc1cccc(Cl)c1 (centres undefined) | -6.11
54 | CS(=O)(=O)NCc1cnc2n1CCN(Cc1cccnc1)CC2 | -9.03
55 | Cc1cnn(CC2CN(Cc3nc(C)c4ccccc4n3)CCO2)c1 (centres undefined) | -7.25
56 | COc1cc(OC)cc(N2CCC(NC(=O)c3ccc[nH]3)CC2)c1 | -7.63
57 | Cn1ccc(C(=O)N2CCCC(c3cc4cccnc4c(O)n3)C2)n1 (centres undefined) | -9.08
58 | CCc1cccnc1NCc1cnc(N2CCOCC2)nc1 | 20.6
59 | c1ccc(CN2CCCC[C@H]3CN(c4ncccn4)C[C@H]32)cc1 | -6.75
60 | O=C(CCCOCc1ccccc1)N1CCCC1c1ccccn1 (centres undefined) | -12.6
61 | CC(C)Cc1ncc2c(n1)CN(c1cc(N)nc(N)n1)C2 | -1.3
62 | Cc1cccc2c1nc1n2[C@@H](CNC(=O)c2cncnc2)COC1 | -3.15
63 | CC1CCN(Cc2ccc(CNC(=O)c3ccn(C)c(=O)c3)cc2)CC1 | -9.84
64 | COCCN1CCC(c2nc3ccc(NC(C)C)cn3n2)CC1 | -17.4
65 | CC(C)c1ncc(Cl)c(C(=O)N2CCN(C3CC3)CC2)n1 | -7.86
66 | CN(C)CCn1c2c(ccc1=O)CCN(Cc1ccncc1)CC2 | -4.6
67 | CC(C)CNC(=O)c1ccc(NC(=O)NCC2CC2)cc1Cl | -12.7
68 | CS(=O)(=O)N1CCC(C(=O)NCCCn2cc(Cl)cn2)CC1 | -13.1
69 | Cc1nnc(SCCC(=O)N(C)Cc2ccc(F)cc2Cl)[nH]1 | -4.47

Row | SMILES | cytotoxicity at 70.5 h [%]
70 | NC(=O)c1cc2c(nc1Oc1cccc(CN3CCCC3)c1F)CCC2 | -13.8
71 | O=C(C1CCOC1)N1CCC2(CC1)Cc1ccccc1CNC2=O (centres undefined) | -9.03
72 | CC(C)N(C)C(=O)CSCc1ccc(S(=O)(=O)N(C)C)o1 | -10.8
73 | Cc1ccc(S(=O)(=O)Nc2ccc(-n3ccnc3C)nc2)cc1N(C)C | -2.22
74 | CCn1cc(CN2CCCN(C(=O)c3c(C)oc(C)c3C)CC2)cn1 | -12.8
75 | CCN(CCCNCc1c(C)nn(C)c1N(C)C)S(C)(=O)=O | 4.83
76 | Cn1ccnc1CN1CCN(c2ccc(C#N)cc2F)CC1 | -7.5
77 | CC(C)(CC(=O)N(CC(N)=O)C1CCCC1)c1ccccc1 | -9.09
78 | CCc1nnsc1C(=O)N1CCOC(c2nc(C)n[nH]2)C1 (centres undefined) | 1.73
79 | COCCN1C[C@H]2CC[C@@H]1CN(C(=O)CCn1cc(Cl)cn1)C2 | -10.6
80 | CCOc1ccc(C2SCC(=O)Nc3c2c(=O)[nH]n3C(CC)CC)cc1 (centres undefined) | -6.79
81 | CCOC(=O)c1cnn(-c2cc(Oc3ccccc3C)ncn2)c1N | 23.9
82 | O=C1OCCC1N1CCN(c2ccc(O)cc2)CC1 (centres undefined) | 10.3
83 | CCC(C)Oc1ccc(CNCCNC(C)=O)cc1OC (centres undefined) | -6.94
84 | O=S(=O)(NC[C@H]1C[C@@H]2CCN1C[C@@H]2CN1CCCC1)c1ccc(Cl)cc1 | 17
85 | CN(CCc1ccccn1)C(=O)c1cnn(-c2ccccc2F)c1N | 7.25
86 | Cc1cnc2c(S(=O)(=O)N(C)C3CCS(=O)(=O)C3)cccc2c1 (centres undefined) | -16.4
87 | Cc1nnc2n1CCN(C(=O)c1ccnc(N(C)C)c1)C2 | 6.98
88 | COc1cc(C(=O)Nc2nc(C)no2)ccc1OC1CCCC1 | -4.68
89 | CCc1ncncc1C(=O)N1CCOC(c2nc(C)n[nH]2)C1 (centres undefined) | -3
90 | COc1ccc(-c2cnc(N)nc2C2CCCNC2)cc1 (centres undefined) | 0.112
91 | CCc1nnc(Sc2nn3cc(C)nc3s2)n1C | -2.38
92 | CC(C)(C(=O)NCCS(N)(=O)=O)c1cccc(Br)c1 | -6.85

Row | SMILES | cytotoxicity at 70.5 h [%]
93 | Cc1ccc(CN2CCOCC2)cc1NC(=O)c1ccsc1 | -9.12
94 | O=C(c1cscn1)N1CCc2c(COCC3CC3)cncc2C1 | -1.4
95 | Cc1nn(C)c(N(C)C)c1CNCc1ccccc1Cn1cncn1 | -9.26
96 | O=C(c1ccco1)N1CCn2cc(CN3CCCC3)nc2C1 | -1.74
97 | CC(C)=CCC1(C(=O)O)CCCN(CCC(=O)NC2CC2)C1 (centres undefined) | -25.9
98 | CC(=O)N1CCC(NC2(Cc3cc(CN(C)C)on3)COC2)CC1 | 11.9
99 | COc1ncc(CN2CCOC(C)(C(=O)N3CCOCC3)C2)cn1 (centres undefined) | -4.39
100 | Cc1sc(N)nc1-c1ccc(Cl)cc1 | 15.4
101 | CC(=O)Nc1cc(Br)cnc1OCC(F)(F)F | 20.4
102 | CC(C)=CCCC(C)CN1CCC(n2cc(C(C)(C)O)nn2)CC1 (centres undefined) | -8.45
103 | CC(C)C1CN(S(=O)(=O)N(C)C)CCCN1Cc1ccc(F)cc1 (centres undefined) | 2.12
104 | Cc1cccc(CN2CCc3[nH]nc(C(=O)N4CCOCC4)c3C2)n1 | 0.815
105 | CCNc1cc2c(nn1)CCN(C(=O)Cc1ccc3c(c1)CCO3)C2 | -7.37
106 | CCNC(=O)[C@@H]1C[C@@H](N)CN1C(=O)c1[nH]c2ccccc2c1CC | 18
107 | NC(=O)Cn1ccnc1C1CCCN(Cc2ccccc2OC(F)F)C1 (centres undefined) | -6.45
108 | CC1CCCCN1CCNC(=O)c1ccn(-c2ccccc2)n1 (centres undefined) | 13.6
109 | CCN(C(=O)CCCOC)C(c1ccc(Cl)cc1)c1ccccn1 (centres undefined) | 31.1
110 | CCOCC1COCCC12CCN(C(=O)C1=CCCCC1)CC2 (centres undefined) | -4.56
111 | COC(=O)Cn1cccc(S(=O)(=O)N2CCC(C)CC2)c1=O | 41
112 | CCC(CO)NC(=O)c1ccc2ccc(N(C)CC3CC3)n2c1 (centres undefined) | 3.39
113 | CCC1CCCCN1CCNC(=O)N1CCN(Cc2ccon2)CC1 (centres undefined) | -2.53
114 | CN(C)S(=O)(=O)N1C[C@@H]2CC[C@H](C1)N(Cc1ccc3nsnc3c1)C2 | 5.66
